Data from patent US20050220779A1, “Integrin linked kinase modulation of macrophage activation” (priority 2001, published 2005).

Assays:
[1] = tested on: BALB/c cells (primary peritoneal macrophages); assay: LPS-IFN-γ-induced macrophage NO production (Griess nitrite assay), BALB/c cells; format: cell-based, mouse; conditions: 50 μM, 24 h; for NO release (%): relative to DMSO treated cells; for inhibition at 50 µM: Mus musculus, Peritoneal macrophage
Experimental: (§1) Isolation of primary mouse macrophages. Peritoneal exudate macrophages were isolated by peritoneal lavage with ice-cold sterile physiological saline 24 h after intraperitoneal injection of BALB/c and CB57BL/6 mice with 0.3 ml of sterile Zymosan A (1 mg/0.5 ml 0.9% saline). Cells were washed, resuspended in RPMI 1640 supplemented with 2 mM L-glutamine, 100 units/ml penicillin, 100 μg/ml streptomycin, and 5% FBS.
(§2) Treatment of primary macrophages and RAW 264.7 cells. Primary macrophages (1.5×10^5 cells/well) and RAW 264.7 (4×10^4 cells/well) cells were grown in 96-well plates (nitrite assay), or 6-well plates (2×10^6 cells/well) for measurement of iNOS and COX-2 expression. Following 3 h incubation, at 37 C, 5% CO2 (macrophages were allowed to attach) cells were stimulated with LPS (0.5 μg/ml) and IFN-γ (100 U/ml) in the absence or presence of various concentrations of ILK inhibitors (all treatments were replicated six times). Cells were incubated for an additional 24 h, and cell free culture supernatants from each well were collected for NO and cytokine determination. The remaining cells were stained with crystal violet to determine effect of the inhibitors on cell survival.
(§3) NO production. Following stimulation, the production of NO was determined by assaying culture supernatants for NO2^−, a stable reaction product of NO with molecular oxygen. Briefly, 100 μl of culture supernatant was reacted with an equal volume of Griess reagent at room temperature for 10 min. The absorbance at 550 nm was determined. All measurements were performed six times. The concentration of NO2^−was calculated by comparison with a standard curve prepared using NaNO2.
(§4) Effects of ILK inhibitors on LPS-IFN-γ-induced NO release. […] […] To compare the effect of the compounds across three different cell types, the NO release for each cell type was expressed relative to DMSO treated cells. […] For example, macrophages from Balb/c and C57BL/6 mice responded similarly to the treatment with the compounds.

[2] = tested on: C57BL/6 cells (primary peritoneal macrophages); assay: LPS-IFN-γ-induced macrophage NO production (Griess nitrite assay), C57BL/6 cells; format: cell-based, mouse; conditions: 50 μM, 24 h; for NO release (%): relative to DMSO treated cells; for inhibition at 50 µM: Mus musculus, Peritoneal macrophage
Experimental: as §1, §2, §3, §4

[3] = biological target: T1, integrin linked kinase (full-length recombinant GST-ILK) (Homo sapiens, UniProt Q13418); assay: ILK kinase inhibition assay (phosphocellulose filter, scintillation counting); format: biochemical
T1 construct: The target integrin linked kinase is a full-length recombinant protein expressed in sF9 insect cells; made in house; host or cells: baculovirus; virus amplified in Sf9, protein expressed in Hi5 insect cells
T1 sequence (Q13418 1-452): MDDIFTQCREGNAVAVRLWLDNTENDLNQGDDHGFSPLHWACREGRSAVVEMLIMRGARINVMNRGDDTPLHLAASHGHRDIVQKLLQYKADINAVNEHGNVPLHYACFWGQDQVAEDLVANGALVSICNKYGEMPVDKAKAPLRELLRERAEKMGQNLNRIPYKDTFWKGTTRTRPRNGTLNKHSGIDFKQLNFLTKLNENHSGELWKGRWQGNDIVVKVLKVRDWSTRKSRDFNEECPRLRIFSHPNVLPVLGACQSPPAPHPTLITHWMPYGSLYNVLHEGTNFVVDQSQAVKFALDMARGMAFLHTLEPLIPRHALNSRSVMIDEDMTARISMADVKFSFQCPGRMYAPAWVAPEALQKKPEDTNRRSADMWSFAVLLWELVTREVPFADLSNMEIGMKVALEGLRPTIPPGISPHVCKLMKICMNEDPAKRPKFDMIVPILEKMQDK
Experimental: Inhibition Assay: Compounds were received in lyophilized form and stored at −20° C. Stock solutions were made by weighing out the compounds and dissolving them in dimethyl sulfoxide (DMSO) to a standard concentration, usually 20 mM, and stored at −20° C. […] Diluted 100% DMSO was used as a negative control.
5 μl of each compound dilution were robotically pipetted to Costar serocluster plates maintaining the same plate format. All assays consisted of the following volumes: • 5 μl diluted compound • 10 μl enzyme preparation • 5 μl substrate • 5 μl assay ATP and were then incubated 15 min at room temperature.
From each reaction, 10 μl of reaction mix was spotted onto Millipore Multiscreen-PH opaque plates and washed 2×10 min in 1% phosphoric acid. The plates were dried for at 40° C. for 30 min, then the substrate phosphate complexes were quantitated by scintillation counting. These Millipore plates are in a 96 well format with immobilized P81 phosphocellulose membranes. Both the phosphorylated and non-phosphorylated form of the substrate bind to the membrane while ATP (unincorporated phosphate) is removed in the subsequent wash steps.
Integrin Linked Kinase: The target integrin linked kinase is a full-length recombinant protein expressed in sF9 insect cells by baculovirus infection. The ILK1 substrate is […]-amide.
Recombinant ILK protein was expressed using cultured insect cells and a baculovirus expression system.
A large scale plasmid preparation of the resulting transfer construct was made using a Qiagen Plasmid Midi Kit. This ILK transfer construct was then co-transfected with BaculoGold DNA (Pharmingen) into Sf9 insect cells (Invitrogen) and a high titre preparation of GST-ILK recombinant baculovirus was produced by amplification in Sf9 cells. Liter scale expression of GST-ILK recombinant protein was done in 1000 ml spinner flasks (Bellco) by infection of Hi5 insect cells (invitrogen) grown in Ex-Cell 400 Serum Free Media (JRH Biosciences) at a multiplicity of infection of approximately 5. The cells were harvested three days after infection and lysed in Hypotonic Lysis Buffer (HLB; 10 mM imidazole, 5 mM EDTA, 0.1% β-mercaptoethanol, 10 ug/ml PMSF, 1 mM benzamidine) by sonication. The lysate was centrifuged at 10,000×g for 20 min and the supernatant was discarded. The pellet was washed twice in HLB and then washed twice in High Salt Buffer (HSB; 500 mM NaCl, 10 mM imidazole, 5 mM EDTA, 0.1% β-mercaptoethanol, 10 ug/mI PMSF, 1 mM benzamidine). The pellet was then resuspended in DNAse-ATP Buffer (DAB; 10 mM MgCl2, 1 mM MnCl2, β-methyl aspartic acid, 2 mM NaF, 0.55 mg/ml ATP, 1 ug/ml DNAse l, 1% NP-40, 10 mM imidazole, 5 mM EDTA, 0.1% β-mercaptoethanol, 10 ug/ml PMSF, 1 mM benzamidine) and stirred for 30 min at room temperature, and then centrifuged at 10,000×g for 20 min. The pellet was resuspended in High Salt Detergent buffer (HDB; 1% NP-40, 1% Triton X-100, 500 mM NaCl, 10 mM imidazole, 5 mM EDTA, 0.1% β-mercaptoethanol, 10 ug/ml PMSF, 1 mM benzamidine), stirred for 30 min at room temperature, and then centrufuged at 10,000×g for 20 min. The pellet was then washed once in each of HDB, HSB, and HLB, centrifuging at 10,000×g each time. Finally, the pellet was resuspended in HLB.

N=C(N)N/N=C/c1ccc(Cl)cc1Cl [KP-16735]
NO release (%) [1]: −4.2% | inhibition at 50 µM [1]: 106% | NO release (%) [2]: −7.0% | inhibition at 50 µM [2]: 114% | inhibition at 0.1 µM ([3]; 0.1 μM, corrected against the maximum observed inhibition): 13% | inhibition at 0.3 µM ([3]; 0.3 μM, corrected against the maximum observed inhibition): -1% | inhibition at 0.7 µM ([3]; 0.7 μM, corrected against the maximum observed inhibition): 4% | inhibition at 1.6 µM ([3]; 1.6 μM, corrected against the maximum observed inhibition): 18% | inhibition at 4.1 µM ([3]; 4.1 μM, corrected against the maximum observed inhibition): 32% | inhibition at 10.2 µM ([3]; 10.2 μM, corrected against the maximum observed inhibition): 69% | inhibition at 25.6 µM ([3]; 25.6 μM, corrected against the maximum observed inhibition): 85% | inhibition at 64 µM ([3]; 64.0 μM, corrected against the maximum observed inhibition): 99% | inhibition at 160 µM ([3]; 160.0 μM, corrected against the maximum observed inhibition): 102% | inhibition at 400 µM ([3]; 400.0 μM, corrected against the maximum observed inhibition): 99%

Oc1ccc2c(c1)CC1NCCc3cc(O)c(O)c-2c31 (stereo not shown) [KP-21849, 5,6,6a,7-Tetrahydro-4H-dibenzo[de,g]quinoline-1,2,9-triol]
NO release (%) [1]: −4.2% | inhibition at 50 µM [1]: 110% | NO release (%) [2]: −8.0% | inhibition at 50 µM [2]: 118% | inhibits ILK at [3]: 2 µM
